In the NIST ThermoML archive (doi:10.1021/je5009729):
± gives the expanded uncertainty stated by the source. Blank lines part the entries; values can stand above or below the compound they belong to.

Experiments:
[1] = for vapor or sublimation pressure: Gas chromatography; for Normal melting temperature / Triple point temperature: DTA
[2] = Molar enthalpy of transition or fusion; conditions: DSC

Compound: CCCCCCCC/C=C\CCCCCCCC(=O)O [(Z)-9-octadecenoic acid]
vapor or sublimation pressure ([1]; 298.15 K, Liquid): 1.01e-08 kPa

Compound: CCCCCC=CCC=CCC=CCC=CCCCC(=O)O [5,8,11,14-eicosatetraenoic acid]
vapor or sublimation pressure ([1]; 298.15 K, Liquid): 6.5e-10 kPa

Compound: CCCCCC/C=C\CCCCCCCC(=O)O [cis-9-hexadecenoic acid]
vapor or sublimation pressure ([1]; 298.15 K, Liquid): 6.9e-08 kPa

Compound: CC/C=C\C/C=C\C/C=C\C/C=C\C/C=C\C/C=C\CCC(=O)O [cis-4,7,10,13,16,19-docosahexaenoic acid]
vapor or sublimation pressure ([1]; 298.15 K, Liquid): 2.2e-11 kPa

Second part, the compound after the results:

vapor or sublimation pressure ([1]; 298.15 K, Crystal): 8e-15 kPa
vapor or sublimation pressure ([1]; 298.15 K, Liquid): 2.5e-12 kPa
Normal melting temperature ([1]; Crystal 1): 85.7 ± 0.7 °C
Triple point temperature ([1]; Crystal 2): 354.3 ± 0.5 K
Molar enthalpy of transition or fusion ([2]; Crystal 2): 21.2 ± 0.621 kcal/mol
Compound: CCCCCCCCCCCCCCCCCCCCCCCCCC(=O)O [hexacosanoic acid]

vapor or sublimation pressure ([1]; 298.15 K, Liquid): 1.13e-08 kPa
Compound: CCCCCCCCCCC/C=C\CCCCC(=O)O [(Z)-6-octadecenoic acid]

vapor or sublimation pressure ([1]; 298 K, Crystal): 2.7e-12 kPa
vapor or sublimation pressure ([1]; 298.15 K, Liquid): 1e-11 kPa
Normal melting temperature ([1]; Crystal): 42 ± 1 °C
Molar enthalpy of transition or fusion ([2]; Crystal): 14.4 ± 0.359 kcal/mol
Compound: CCCCCCCC/C=C\CCCCCCCCCCCCCC(=O)O [(Z)-tetracos-15-enoic acid]

vapor or sublimation pressure ([1]; 298.15 K, Liquid): 1.18e-09 kPa
Compound: CCCCCCCC/C=C\CCCCCCCCCC(=O)O [(11Z)-eicosenoic acid]

vapor or sublimation pressure ([1]; 298 K, Crystal): 4e-14 kPa
vapor or sublimation pressure ([1]; 298.15 K, Liquid): 1.1e-11 kPa
Normal melting temperature ([1]; Crystal 1): 83.4 ± 0.5 °C
Triple point temperature ([1]; Crystal 2): 351 ± 1 K
Triple point temperature ([1]; Crystal 3): 347 ± 1 K
Molar enthalpy of transition or fusion ([2]; Crystal 1): 20.2 ± 0.454 kcal/mol
Molar enthalpy of transition or fusion ([2]; Crystal 3): 1.18 ± 0.0621 kcal/mol
Compound: CCCCCCCCCCCCCCCCCCCCCCCC(=O)O [lignoceric acid]
